Source: patent publication US5407942A, “Biphenylmethyl-substituted pyridones” (Bayer Aktiengesellschaft, priority 1992, dated 1995)
≈ marks a conversion by molar mass, not a printed value.

Columns and labels:
[1] = system: isolated rabbit aorta rings; contraction induced by angiotensin II (AII); experiment: Inhibition of vascular contraction in isolated rabbit aorta rings induced by angiotensin II (AII); type: cell-based; conditions: Oryctolagus cuniculus; isolated rabbit aorta rings in vitro, 37° C.; based on 3rd = submaximal agonist concentration; read-out: IC50 against contractions induced by AII
Method: Investigation of the inhibition of the contraction induced by agonists
Rabbits of either sex are stunned by a blow to the back of the head and bled out, or in some cases anaesthetised with Nembutal (about 60-80 mg/kg i.v.) and sacrificed by opening the thorax. The thorax aorta is removed, freed from adhering connective tissue, divided into ring segments 1.5 mm wide and individually transferred under an initial loading of about 3.5 g to 10 ml organ baths containing Krebs-Henseleit nutrient solution, which is temperature-controlled at 37° C. and aerated with 95% O2 /5% CO2, of the following composition: 119 mmol/l of NaCl; 2.5 mmol/l of CaCl2 ×2H2 O; 1.2 mmol/l of KH2 PO4; 10 mmol/l of glucose; 4.8 mmol/l of KCl; 1.4 mmol/l of MgSO4 ×7 H2 O and 25 mmol/l of NaHCO3.
The contractions are detected isometrically by Statham UC2 cells by means of bridge amplifiers (ifd Mulheim or DSM Aalen) and digitalised and assessed by means of A/D converters (System 570, Keithley Munich). Agonist dose response curves (DRC) are plotted hourly. With each DRC, 3 or 4 individual concentrations are applied to the baths at a 4 min interval. After the end of the DRC and subsequent washing-out cycles (16 times in each case about 5 sec/min with the abovementioned nutrient solution), a 28-minute rest or incubation phase follows, during which the contractions as a rule reach the starting value again.
The height of the 3rd DRC, in a normal case, is used as a reference variable for the assessment of the test substance to be investigated in further runs, which is applied to the baths in the following DRCs in increasing doses in each case at the start of the incubation period. Each aorta ring is in this case stimulated for the whole day, always with the same agonist.
Agonists and their standard concentrations (application
For the calculation of the IC50 (concentration at which the substance to be investigated causes a 50% inhibition), the effect is in each case based on the 3rd=submaximal agonist concentration.

smooth muscle cells = experiment: Inhibition of the proliferation of smooth muscle cells (3H-thymidine incorporation); type: cell-based, rats or pigs; conditions: 10^-6 M, stimulated with AII, serum or other factors
Method: Investigation of the inhibition of the proliferation of smooth muscle cells by the compounds according to the invention
To determine the antiproliferative action of the compounds, smooth muscle cells are used which are obtained from aortas of rats or pigs by the media explant technique [R. Ross, J. Cell. Biol. 50, 172, 1971]. The cells are inoculated into suitable culture dishes, as a rule 24-hole plates, and cultured at 37° C. for 2-3 days in medium with addition of serum, 2 mmol L-glutamine and 15 mmol HEPES, pH 7.4 in 5% CO2. The cells are then synchronised by withdrawal of serum for 2-3 days and then stimulated into growth with AII, serum or other factors. Test compounds are simultaneously added. […]

angiotensin II receptor = target: T1, angiotensin II receptor (Bos taurus, UniProt P25104); experiment: Interaction with the angiotensin II receptor in membrane fractions of the adrenal gland cortex (bovine), 3H-angiotensin II binding; conditions: 3H-angiotensin II 3-5 nM, 60 min at room temperature, read-out: Ki, specific binding of 3H-angiotensin II
T1 construct: partially purified membrane fractions of bovine AGC using radioactive angiotensin II; from tissue; host or cells: bovine adrenal gland cortex, partially purified membrane fractions
T1 sequence (P25104 1-359): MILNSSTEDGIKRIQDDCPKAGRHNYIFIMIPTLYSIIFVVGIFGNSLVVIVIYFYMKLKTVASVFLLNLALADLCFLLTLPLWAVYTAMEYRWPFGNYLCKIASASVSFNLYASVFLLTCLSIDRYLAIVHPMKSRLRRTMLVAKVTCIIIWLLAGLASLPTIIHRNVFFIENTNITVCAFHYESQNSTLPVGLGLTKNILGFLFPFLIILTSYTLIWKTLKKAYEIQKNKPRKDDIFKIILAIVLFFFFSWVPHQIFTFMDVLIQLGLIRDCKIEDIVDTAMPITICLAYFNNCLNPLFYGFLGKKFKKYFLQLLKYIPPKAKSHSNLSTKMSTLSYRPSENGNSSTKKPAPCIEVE
Description: Interaction of the compounds according to the invention with the angiotensin II receptor in membrane fractions of the adrenal gland cortex (bovine)
Bovine adrenal gland cortices (AGC), which have been freshly removed and carefully freed from gland medulla, are comminuted in sucrose solution (0.32M) with the aid of an Ultra-Turrax (Janke & Kunkel, Staufen i.B.) to give a coarse membrane homogenate and partially purified in two centrifugation steps to give membrane fractions. The receptor binding investigations are carried out on partially purified membrane fractions of bovine AGC using radioactive angiotensin II in an assay volume of 0.25 ml, which specifically contains the partially purified membranes (50-80 μg), ^3 H-angiotensin II (3-5 nM), test buffer solution (50 mM Tris, pH 7.2, 5 mM MgCl2) and the substances to be investigated. After an incubation time of 60 min at room temperature, the unbound radioactivity of the samples is separated by means of moistened glass fibre filters (Whatman GF/C) and the bound radioactivity is measured […] in a scintillation cocktail after washing the protein with ice-cold buffer solution (50 mM Tris/HCl, pH 7.4, 5% PEG 6000). The analysis of the raw data was carried out using computer programs to give Ki or IC50 values (Ki : IC50 values corrected for the radioactivity used; IC50 values: concentration at which the substance to be investigated causes a 50% inhibition of the specific binding of the radioligand).

Row | IC50 [1] | Ki (angiotensin II receptor) | Compound | inhibition at 1 µM (smooth muscle cells)
1 | > 1 µg/mL | 2000 nM | O=c1c2ccccc2cc(-c2ccccc2)n1Cc1ccc(-c2ccccc2-c2nnn[nH]2)cc1 [Example 6, 3-Phenyl-2-{[2'-(tetrazol-5-yl)-biphenyl-4-yl]methyl}-isoquinolin-1(2H)-one] | 70%
2 | 0.84 µg/mL (≈ 2.06 µM) | 750 nM | CCc1cc2ccccc2c(=O)n1Cc1ccc(-c2ccccc2-c2nnn[nH]2)cc1 [Example 4, 3-Ethyl-2-{[2'-(tetrazol-5-yl)-biphenyl-4-yl]methyl}-isoquinolin-1(2H)-one] | –
3 | 0.23 µg/mL (≈ 0.528 µM) | 42 nM | CCCCc1cc2ccccc2c(=O)n1Cc1ccc(-c2ccccc2-c2nnn[nH]2)cc1 [Example 2, 3-Butyl-2-{[2'-(tetrazol-5-yl)-biphenyl-4-yl]methyl}-isoquinolin-1(2H)-one] | –
